# Test results taken from PubChem BioAssay (NCI).
#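 A five-concentration, 48-hour dose response in 96-well plates underlies each endpoint, interpolated linearly between surrounding concentrations. At the GI50, growth is halved. TGI is the concentration that stops growth completely.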
# What was measured:
# Assay in all cases: NCI-60 cell line screen, 48 h
# CCRF-CEM leukemia = tested on: CCRF-CEM leukemia
# HL-60(TB) leukemia = tested on: HL-60(TB) leukemia
# TK-10 renal = tested on: TK-10 renal
# MCF7 breast = tested on: MCF7 breast
# K-562 leukemia = tested on: K-562 leukemia
# A549 NSCLC = tested on: A549 NSCLC
# SK-MEL-28 melanoma = tested on: SK-MEL-28 melanoma
# MDA-MB-468 breast = tested on: MDA-MB-468 breast
# DU-145 prostate = tested on: DU-145 prostate
# EKVX NSCLC = tested on: EKVX NSCLC
# UO-31 renal = tested on: UO-31 renal
# NCI-H23 lung = tested on: NCI-H23 lung
# A498 renal = tested on: A498 renal
# MALME-3M melanoma = tested on: MALME-3M melanoma
# NCI-H522 lung = tested on: NCI-H522 lung
# SF-295 CNS = tested on: SF-295 CNS
# PC-3 prostate = tested on: PC-3 prostate
# RXF 393 renal = tested on: RXF 393 renal
# SK-OV-3 ovarian = tested on: SK-OV-3 ovarian
# SF-539 CNS = tested on: SF-539 CNS
# OVCAR-4 ovarian = tested on: OVCAR-4 ovarian
# KM12 colon = tested on: KM12 colon
# 786-0 renal = tested on: 786-0 renal
# IGROV1 ovarian = tested on: IGROV1 ovarian
# LOX IMVI melanoma = tested on: LOX IMVI melanoma
# T-47D breast = tested on: T-47D breast
# NCI-H460 lung = tested on: NCI-H460 lung
# ACHN renal = tested on: ACHN renal
# SNB-75 CNS = tested on: SNB-75 CNS
# SW-620 colon = tested on: SW-620 colon
# RPMI-8226 leukemia = tested on: RPMI-8226 leukemia
# HS 578T breast = tested on: HS 578T breast
# SK-MEL-2 melanoma = tested on: SK-MEL-2 melanoma
# SN12C renal = tested on: SN12C renal
# UACC-62 melanoma = tested on: UACC-62 melanoma
# SR leukemia = tested on: SR leukemia
# M14 melanoma = tested on: M14 melanoma
# HCT-116 colon = tested on: HCT-116 colon
# HOP-92 NSCLC = tested on: HOP-92 NSCLC
# SNB-19 CNS = tested on: SNB-19 CNS
# UACC-257 melanoma = tested on: UACC-257 melanoma
# HOP-62 NSCLC = tested on: HOP-62 NSCLC
# U251 CNS = tested on: U251 CNS
# MOLT-4 leukemia = tested on: MOLT-4 leukemia
# MDA-MB-435 = tested on: MDA-MB-435
# OVCAR-8 ovarian = tested on: OVCAR-8 ovarian
# SF-268 CNS = tested on: SF-268 CNS
# HCT-15 colon = tested on: HCT-15 colon
# COLO 205 colon = tested on: COLO 205 colon
# OVCAR-3 ovarian = tested on: OVCAR-3 ovarian
# OVCAR-5 ovarian = tested on: OVCAR-5 ovarian
# MDA-MB-231 breast = tested on: MDA-MB-231 breast
# HT29 colon = tested on: HT29 colon
# SK-MEL-5 melanoma = tested on: SK-MEL-5 melanoma
# BT-549 breast = tested on: BT-549 breast
# HCC-2998 colon = tested on: HCC-2998 colon
# CAKI-1 renal = tested on: CAKI-1 renal
# NCI-H226 lung = tested on: NCI-H226 lung
structure (smiles),measurement,setting,value
O=C1Nc2cc(Cl)ccc2/C1=C/c1cccc(OCc2ccccc2)c1,GI50,CCRF-CEM leukemia,2.86 µM
same,TGI,CCRF-CEM leukemia,13.1 µM
same,GI50,HL-60(TB) leukemia,2.23 µM
same,TGI,HL-60(TB) leukemia,6.49 µM
same,GI50,TK-10 renal,16.2 µM
same,TGI,TK-10 renal,35.9 µM
same,GI50,MCF7 breast,1.67 µM
same,TGI,MCF7 breast,12.9 µM
same,GI50,K-562 leukemia,2.13 µM
same,TGI,K-562 leukemia,10.2 µM
same,GI50,A549 NSCLC,10 µM
same,TGI,A549 NSCLC,24.9 µM
same,GI50,SK-MEL-28 melanoma,5.3 µM
same,TGI,SK-MEL-28 melanoma,17.9 µM
same,GI50,MDA-MB-468 breast,2.43 µM
same,TGI,MDA-MB-468 breast,14.1 µM
same,GI50,DU-145 prostate,10.9 µM
same,TGI,DU-145 prostate,42.1 µM
same,GI50,EKVX NSCLC,5.35 µM
same,TGI,EKVX NSCLC,23.7 µM
same,GI50,UO-31 renal,2.45 µM
same,TGI,UO-31 renal,18.6 µM
same,GI50,NCI-H23 lung,4.23 µM
same,TGI,NCI-H23 lung,21.5 µM
same,GI50,A498 renal,13.7 µM
same,TGI,A498 renal,27.9 µM
same,GI50,MALME-3M melanoma,4.3 µM
same,TGI,MALME-3M melanoma,16.7 µM
same,GI50,NCI-H522 lung,2.93 µM
same,TGI,NCI-H522 lung,12.2 µM
same,GI50,SF-295 CNS,5.18 µM
same,TGI,SF-295 CNS,21 µM
same,GI50,PC-3 prostate,4.67 µM
same,TGI,PC-3 prostate,20.5 µM
same,GI50,RXF 393 renal,10.8 µM
same,TGI,RXF 393 renal,24.4 µM
same,GI50,SK-OV-3 ovarian,13.1 µM
same,TGI,SK-OV-3 ovarian,31.6 µM
same,GI50,SF-539 CNS,2.27 µM
same,TGI,SF-539 CNS,5.49 µM
same,GI50,OVCAR-4 ovarian,3.7 µM
same,TGI,OVCAR-4 ovarian,19.1 µM
same,GI50,KM12 colon,3.69 µM
same,TGI,KM12 colon,14.1 µM
same,GI50,786-0 renal,3.12 µM
same,TGI,786-0 renal,15.9 µM
same,GI50,IGROV1 ovarian,3.43 µM
same,TGI,IGROV1 ovarian,18.3 µM
same,GI50,LOX IMVI melanoma,2.75 µM
same,TGI,LOX IMVI melanoma,11.4 µM
same,GI50,T-47D breast,4.73 µM
same,TGI,T-47D breast,30 µM
same,GI50,NCI-H460 lung,3.24 µM
same,TGI,NCI-H460 lung,11.5 µM
same,GI50,ACHN renal,3.97 µM
same,TGI,ACHN renal,16.1 µM
same,GI50,SNB-75 CNS,3.23 µM
same,TGI,SNB-75 CNS,21.2 µM
same,GI50,SW-620 colon,3.59 µM
same,TGI,SW-620 colon,14.5 µM
same,GI50,RPMI-8226 leukemia,2.13 µM
same,TGI,RPMI-8226 leukemia,11.7 µM
same,GI50,HS 578T breast,3.46 µM
same,TGI,HS 578T breast,22.8 µM
same,GI50,SK-MEL-2 melanoma,3.68 µM
same,TGI,SK-MEL-2 melanoma,15 µM
same,GI50,SN12C renal,6.93 µM
same,TGI,SN12C renal,20.3 µM
same,GI50,UACC-62 melanoma,2.41 µM
same,TGI,UACC-62 melanoma,10.1 µM
same,GI50,SR leukemia,2.1 µM
same,TGI,SR leukemia,5.86 µM
same,GI50,M14 melanoma,3.19 µM
same,TGI,M14 melanoma,15.5 µM
same,GI50,HCT-116 colon,2.43 µM
same,TGI,HCT-116 colon,12.7 µM
same,GI50,HOP-92 NSCLC,1.33 µM
same,TGI,HOP-92 NSCLC,9.75 µM
same,GI50,SNB-19 CNS,10.2 µM
same,TGI,SNB-19 CNS,25.7 µM
same,GI50,UACC-257 melanoma,6.18 µM
same,TGI,UACC-257 melanoma,21.2 µM
same,GI50,HOP-62 NSCLC,9.61 µM
same,TGI,HOP-62 NSCLC,29.1 µM
same,GI50,U251 CNS,3.5 µM
same,TGI,U251 CNS,13.7 µM
same,GI50,MOLT-4 leukemia,2.69 µM
same,TGI,MOLT-4 leukemia,10.9 µM
same,GI50,MDA-MB-435,2.04 µM
same,TGI,MDA-MB-435,4.45 µM
same,GI50,OVCAR-8 ovarian,6.86 µM
same,TGI,OVCAR-8 ovarian,25.3 µM
same,GI50,SF-268 CNS,3.26 µM
same,TGI,SF-268 CNS,15.1 µM
same,GI50,HCT-15 colon,2.58 µM
same,TGI,HCT-15 colon,13.3 µM
same,GI50,COLO 205 colon,13.8 µM
same,TGI,COLO 205 colon,30.2 µM
same,GI50,OVCAR-3 ovarian,2.89 µM
same,TGI,OVCAR-3 ovarian,9.48 µM
same,GI50,OVCAR-5 ovarian,11.8 µM
same,TGI,OVCAR-5 ovarian,24.4 µM
same,GI50,MDA-MB-231 breast,4.76 µM
same,TGI,MDA-MB-231 breast,18.6 µM
same,GI50,HT29 colon,5.92 µM
same,TGI,HT29 colon,20.3 µM
same,GI50,SK-MEL-5 melanoma,3.17 µM
same,TGI,SK-MEL-5 melanoma,11.4 µM
same,GI50,BT-549 breast,2.44 µM
same,TGI,BT-549 breast,11.2 µM
same,GI50,HCC-2998 colon,11.9 µM
same,TGI,HCC-2998 colon,25.3 µM
same,GI50,CAKI-1 renal,2.77 µM
same,TGI,CAKI-1 renal,16.4 µM
same,GI50,NCI-H226 lung,6.43 µM
same,TGI,NCI-H226 lung,22.2 µM
